The values below come from patent US5173496A, “Therapeutic preparations containing indazole derivatives” (ICI Pharma, priority 1987, dated 1992).

Experiment [1] relates to carrageenin induced oedema in rat paws. Kind of experiment: carrageenin induced oedema in rat paws. The settings on record: dosed orally at 100 mg/kg. In kind it is in vivo. The source says: A specific known indazolone of formula I which is of particular interest as an inhibitor of 5-LO is, for example, 1,2-dihydro-2-benzylindazol-3-one.
In general terms: In the carrageenan paw model, swelling and tenderness develop within hours.

The test system is the same in experiment [2]. To be noted: J. Heterocyclic Chemistry, 1970, 7, 815-820; cited from earlier work.
Experiment [3] deals with T1, 5-LO isolated from guinea pig neutrophils (Cavia porcellus, UniProt A0A286X958).
T1 construct: 5-LO isolated from guinea pig neutrophils; from tissue; host or cells: guinea pig neutrophils
T1 sequence (A0A286X958 1-674): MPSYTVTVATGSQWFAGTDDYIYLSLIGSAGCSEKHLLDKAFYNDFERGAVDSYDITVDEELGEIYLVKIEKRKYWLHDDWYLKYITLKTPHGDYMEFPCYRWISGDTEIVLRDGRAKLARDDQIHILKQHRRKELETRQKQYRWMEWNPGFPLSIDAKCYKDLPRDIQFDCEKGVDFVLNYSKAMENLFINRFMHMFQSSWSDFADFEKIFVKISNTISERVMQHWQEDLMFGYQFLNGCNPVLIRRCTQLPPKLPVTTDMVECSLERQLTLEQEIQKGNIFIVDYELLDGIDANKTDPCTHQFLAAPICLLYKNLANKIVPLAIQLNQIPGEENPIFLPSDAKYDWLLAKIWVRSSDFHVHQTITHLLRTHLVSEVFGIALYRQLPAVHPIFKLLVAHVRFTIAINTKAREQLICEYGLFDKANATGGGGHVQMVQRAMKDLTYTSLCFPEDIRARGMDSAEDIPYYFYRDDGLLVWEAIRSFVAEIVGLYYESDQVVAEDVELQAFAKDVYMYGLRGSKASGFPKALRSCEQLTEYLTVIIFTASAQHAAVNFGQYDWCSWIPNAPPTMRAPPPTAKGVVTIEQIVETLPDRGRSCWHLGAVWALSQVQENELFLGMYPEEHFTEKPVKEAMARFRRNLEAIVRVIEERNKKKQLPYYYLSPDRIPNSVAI
Nature of the experiment: Test (a): in vitro spectrophotometric enzyme assay, cell free system, 5-LO isolated from guinea pig neutrophils. Type of experiment: biochemical. The source says:
a) An in vitro spectrophotometric enzyme assay system, which assesses the inhibitory properties of a test compound in a cell free system using 5-LO isolated from guinea pig neutrophils and as described by D. Aharony and R. L. Stein (J. Biol. Chem., 1986, 261(25), 11512-11519). This test provides a measure of the intrinsic inhibitory properties against soluble 5-LO in an extracellular environment.

The target of experiment [4] is T2, 5-LO (Rattus norvegicus, UniProt P12527).
T2 construct: challenge with A23187 and radioimmunoassay of LTB4 and PGE2; endogenous in cells; host or cells: blood collected after oral dosing, heparinised
T2 sequence (P12527 1-673): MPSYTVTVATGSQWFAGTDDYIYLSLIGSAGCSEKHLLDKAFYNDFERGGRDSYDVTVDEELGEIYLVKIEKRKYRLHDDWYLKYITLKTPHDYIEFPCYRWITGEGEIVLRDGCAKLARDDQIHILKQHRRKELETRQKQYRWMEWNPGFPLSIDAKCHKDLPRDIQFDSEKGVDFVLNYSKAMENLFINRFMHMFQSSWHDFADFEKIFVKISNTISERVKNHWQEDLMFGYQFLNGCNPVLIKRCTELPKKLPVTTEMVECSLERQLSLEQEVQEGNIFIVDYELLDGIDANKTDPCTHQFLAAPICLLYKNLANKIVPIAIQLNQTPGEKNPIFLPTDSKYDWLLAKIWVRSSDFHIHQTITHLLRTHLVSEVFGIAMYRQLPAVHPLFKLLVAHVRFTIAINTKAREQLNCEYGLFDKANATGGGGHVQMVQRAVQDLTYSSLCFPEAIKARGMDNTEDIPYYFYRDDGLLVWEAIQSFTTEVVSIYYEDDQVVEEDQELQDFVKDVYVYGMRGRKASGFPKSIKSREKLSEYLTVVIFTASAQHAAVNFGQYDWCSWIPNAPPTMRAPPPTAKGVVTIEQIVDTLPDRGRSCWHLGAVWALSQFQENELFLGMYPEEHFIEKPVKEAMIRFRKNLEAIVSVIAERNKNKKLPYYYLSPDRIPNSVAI
Kind of experiment: Test (b): in vitro heparinised rat blood, A23187 challenge, LTB4 radioimmunoassay (5-LO). Type of experiment: cell-based. The protocol: (§1) b) An in vitro assay system involving incubating a test compound with heparinised rat blood, prior to challenge with the calcium ionophore A23187 and then indirectly measuring the inhibitory effects on 5-LO by assaying the amount of LTB4 using the specific radioimmunoassay described by Carey and Forder (F. Carey and R. A. Forder, Brit. J. Pharmacol. 1985, 84, 34P) which involves the use of a protein-LTB4 conjugate produced using the procedure of Young et alia (Prostaglandins, 1983, 26(4), 605-613). The effects of a test compound on the enzyme cyclooxygenase (which is involved in the alternative metabolic pathway for arachidonic acid and gives rise to prostaglandins, thromboxanes and related metabolites) may be measured at the same time using the specific radioimmunoassay for prostaglandin E2 (PGE2) described by Carey and Forder (see above). This test provides an indication of the effects of a test compound against 5-LO and also cyclooxygenase in the presence of blood cells and proteins. It permits the selectivity of the inhibitory effect on 5-LO or cyclooxygenase to be assessed.

Experiment [5] concerns the target T3, cyclooxygenase (Rattus norvegicus, UniProt Q63921).
T3 construct: incubating a test compound with heparinised rat blood; endogenous in cells; host or cells: heparinised rat blood (platelets and leukocytes)
T3 sequence (Q63921 27-602): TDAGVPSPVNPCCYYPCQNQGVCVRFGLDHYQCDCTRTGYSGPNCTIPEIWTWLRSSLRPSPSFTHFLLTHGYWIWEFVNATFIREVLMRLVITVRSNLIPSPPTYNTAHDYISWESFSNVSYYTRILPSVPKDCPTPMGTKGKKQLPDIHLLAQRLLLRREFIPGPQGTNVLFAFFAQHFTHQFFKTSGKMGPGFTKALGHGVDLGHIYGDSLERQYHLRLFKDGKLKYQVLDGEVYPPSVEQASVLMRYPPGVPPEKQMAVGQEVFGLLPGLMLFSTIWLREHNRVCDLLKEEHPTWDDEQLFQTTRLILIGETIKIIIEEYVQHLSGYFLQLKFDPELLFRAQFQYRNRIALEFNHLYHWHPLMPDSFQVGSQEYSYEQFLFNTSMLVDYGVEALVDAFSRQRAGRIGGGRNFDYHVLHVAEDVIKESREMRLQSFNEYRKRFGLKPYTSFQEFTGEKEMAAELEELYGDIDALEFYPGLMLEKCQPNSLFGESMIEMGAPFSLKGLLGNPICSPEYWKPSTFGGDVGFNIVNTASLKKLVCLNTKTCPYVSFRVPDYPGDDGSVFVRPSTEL
Nature of the experiment: Test (b): in vitro heparinised rat blood, A23187 challenge, PGE2 radioimmunoassay (cyclooxygenase). In kind it is cell-based. The protocol: as §1

In experiment [6] the target is T2, 5-LO. Kind of experiment: Test (c): ex vivo assay, oral dosing, blood A23187 challenge, LTB4 radioimmunoassay. In kind it is in vivo. Here is the method: as §1
(§2) c) An ex vivo assay system, which is a variation of test (b) above, involving administration of a test compound (usually orally as a suspension in carboxymethylcellulose)blood collection, heparinisation, challenge with A23187 and radioimmunoassay of LTB4 and PGE2. […]

The target in experiment [7] is T3, cyclooxygenase. Kind of experiment: Test (c): ex vivo assay, oral dosing, blood A23187 challenge, PGE2 radioimmunoassay. In kind it is in vivo. The protocol:
as §1, §2

A value given as a limit tells only on which side of the number the result lay.

Regarding `O=c1c2ccccc2[nH]n1Cc1ccccc1` [1,2-dihydro-2-benzylindazol-3-one], in experiment [1], the “significant effects in carrageenin induced oedema in rat paws” value is “unable to detect any significant effects”. Besides, the “anti-inflammatory properties in carrageenin induced oedema in rat paws” value in experiment [2] is “weak anti-inflammatory properties”.

Broadly, the IC50 is the concentration that gives 50% inhibition. Higher therefore signals lower potency. Usually ED50 stands for the midpoint of the dose-response relation. Read a high ED50 as a need for a large dose. Consider `O=c1c2ccccc2[nH]n1Cc1cccc2ccccc12` [Example 1, 1,2-dihydro-2-(1-naphthylmethyl)-3H-indazol-3-one], for which the figures for the half-maximal inhibitory concentration (IC50) (in experiment [3]; against 5-LO [4]; at cyclooxygenase [5]) were 1.7 µM, 0.8 µM and 100 µM, respectively. Besides, the 50% effect level at 5-LO [6] (ED50) was put at a dose of 30 mg/kg.

For the compound `O=c1c2ccccc2[nH]n1Cc1cccnc1` [Example 24], the ED50 on cyclooxygenase [7] was greater than 100 mg/kg; on 5-LO [6] it was less than 10 mg/kg. For the same compound, the IC50 was less than 5 µM against 5-LO [4] and greater than 100 µM at cyclooxygenase [5].
